Experimental data published in patent US11964052B2, “Lipid compounds and lipid nanoparticle compositions” (SUZHOU ABOGEN BIOSCIENCES CO., LTD., priority 2021, dated 2024).

Assays:
Format in all cases: physicochemical
[1] = Encapsulation efficiency of lipid nanoparticles, Quant-it Ribogreen RNA quantification assay; settings: LNP with mRNA
Method: (§1) Briefly, a cationic lipid provided herein, DSPC, cholesterol, and PEG-lipid were solubilized in ethanol at a molar ratio of 50:10:38.5:1.5, and mRNA were diluted in 10 to 50 mM citrate buffer, pH=4. The LNPs were prepared at a total lipid to mRNA weight ratio of approximately 10:1 to 30:1 by mixing the ethanolic lipid solution with the aqueous mRNA solution at a volume ratio of 1:3 using a microfluidic apparatus, total flow rate ranging from 9-30 mL/min. Ethanol were thereby removed and replaced by DPBS using dialysis. Finally, the lipid nanoparticles were filtered through a 0.2 μm sterile filter.
(§2) Lipid nanoparticle size were determined by dynamic light scattering using a Malvern Zetasizer Nano ZS (Malvern UK) using a 173° backscatter detection mode. The encapsulation efficiency of lipid nanoparticles were determined using a Quant-it Ribogreen RNA quantification assay kit (Thermo Fisher Scientific, UK) according to the manufacturer's instructions.

[2] = Apparent pKa of LNP formulations, TNS fluorescence assay; settings: LNP cationic lipid/DSPC/cholesterol/DMG-PEG 50/10/38.5/1.5 mol %, pH 3 to 9
Method: As reported in literature, the apparent pKa of LNP formulations correlates with the delivery efficiency of LNPs for nucleic acids in vivo. The apparent pKa of each formulation was determined using an assay based on fluorescence of 2-(p-toluidino)-6-napthalene sulfonic acid (TNS). LNP formulations comprising of cationic lipid/DSPC/cholesterol/DMG-PEG (50/10/38.5/1.5 mol %) in PBS were prepared as described above. TNS was prepared as a 300 uM stock solution in distilled water. LNP formulations were diluted to 0.1 mg/ml total lipid in 3 mL of buffered solutions containing 50 mM sodium citrate, 50 mM sodium phosphate, 50 mM sodium borate, and 30 mM sodium chloride where the pH ranged from 3 to 9. An aliquot of the TNS solution was added to give a final concentration of 0.1 mg/ml and following vortex mixing fluorescence intensity was measured at room temperature in a Molecular Devices Spectramax iD3 spectrometer using excitation and mission wavelengths of 325 nm and 435 nm. A sigmoidal best fit analysis was applied to the fluorescence data and the pKa value was measured as the pH giving rise to half-maximal fluorescent intensity.

[3] = Lipid nanoparticle size and polydispersity by dynamic light scattering (Malvern Zetasizer Nano ZS); settings: LNP of cationic lipid/DSPC/cholesterol/PEG-lipid 50:10:38.5:1.5 with mRNA
Method: as §1, §2

SMILES | Encapsulation Efficiency [1] [%] | Apparant Pka [2] | polydispersity [3] | size (nm) [3] [nm]
CCCCCCCCCCCCCCOC(COCCCCCCCCCCCC)CN(CCCCCC(=O)OCCCCCCCCCC)CCN(CCO)C1CCC1 (centres unmarked) [Compound 47] | 91.3 | 6.120 | 0.082 | 82.89
CCCCCCCCCCCCOCC(CN(CCCCCC(=O)OCCCCCCCCCC)CCN(CCO)C1CCC1)OCCCCCCCC (centres unmarked) [Compound 48] | 91.7 | 6.263 | 0.113 | 79.39
CCCCCCCCCCCCOCC(CN(CCCCCC(=O)OCCCCCCCCCC)CCN(CCO)C1CCC1)OCCCCCC (centres unmarked) [Compound 49] | 83.7 | 6.221 | 0.031 | 99.66
CCCCCCCCC(CCCCCCCC)CNC(=O)CCOCC(CN(C)CCO)OCCC(=O)NCC(CCCCCCCC)CCCCCCCC (centres unmarked) [Compound 50] | 90.4 | 8.298 | 0.099 | 58.14
CCCCCCCCC(CCCCCCCC)CNC(=O)CCOCC(CN(C)CCN(CCO)C1CCC1)OCCC(=O)NCC(CCCCCCCC)CCCCCCCC (centres unmarked) [Compound 51] | 94.7 | 7.727 | 0.057 | 75.11
CCCCCCCCCCCCCCCCOCC(CN(CCCCCC(=O)OCCCCCCCCCC)CCN(CCO)C1CCC1)OCCCCCC (centres unmarked) [Compound 53] | 89.79 | 6.069 | 0.014 | 90.06
CCCCCCCCC(CCCCCCCC)COC(=O)CCOCC(CN(C)CCN(CCO)C1CCC1)OCCC(=O)OCC(CCCCCCCC)CCCCCCCC (centres unmarked) [Compound 55] | 89.5 | 6.851 | 0.034 | 75.43
CCCCCCCCC(CCCCCCCC)CC(=O)OCC(CCCCN(CCO)C1CCC1)COC(=O)CC(CCCCCCCC)CCCCCCCC [Compound 56] | 91.0 | 6.403 | 0.107 | 53.32
CCCCCCCCC(CCCCCCCC)CNC(=O)CCOCC(CN(C)CCN(CCO)C1CCCC1)OCCC(=O)NCC(CCCCCCCC)CCCCCCCC (centres unmarked) [Compound 57] | 97.0 | 7.73 | 0.055 | 70.05
CCCCCCCCC(CCCCCCCC)CC(=O)OCC(CCCCN(CCO)C1CCC1)COC(=O)CCCCC (centres unmarked) [Compound 60] | 92.6 | 6.985 | 0.068 | 73.31
CCCCCCCCC(CCCCCCCC)CNC(=O)CCOC(COCCC(=O)OCC(CCCCCCCC)CCCCCCCC)CN(C)CCN(CCO)C1CCC1 (centres unmarked) [Compound 61] | 96.2 | 7.219 | 0.055 | 70.83
CCCCCCCCCCCC(=O)OCC(CN(CCCCCC(=O)OCC(CCCCCC)CCCCCC)CCN1CCC(O)C1)OC(=O)CCCCC (centres unmarked) [Compound 62] | 94.1 | 7.062 | 0.075 | 58.44
CCCCCCC(CCCCCC)COC(=O)CCCCCN(CCN1CCC(O)C1)CC(COC(=O)CCCCC)OC(=O)CCCCC (centres unmarked) [Compound 63] | 95.9 | 6.928 | 0.076 | 150.2
CCCCCCCCC(CCCCCCCC)CC(=O)OCC(CCCCN(CCN(C)CCO)C1CCC1)COC(=O)CC(CCCCCCCC)CCCCCCCC [Compound 65] | 97.0 | 6.428 | 0.082 | 73.61
CCCCCCCCC(CCCCCCCC)CC(=O)OCC(CCCCN(C)CCN(CCO)C1CCC1)COC(=O)CC(CCCCCCCC)CCCCCCCC [Compound 66] | 96.6 | 6.749 | 0.044 | 72.85
CCCCCCCCC(CCCCCCCC)CC(=O)OCC(CCCCN(CC)CCN(CCO)C1CCC1)COC(=O)CC(CCCCCCCC)CCCCCCCC [Compound 67] | 91.83 | 6.444 | 0.116 | 130.6
CCCCCCCCC(CCCCCC)CC(=O)OCC(CCCCN(CCO)C1CCCCC1)COC(=O)CC(CCCCCC)CCCCCCCC (centres unmarked) [Compound 68] | 89.42 | 6.22 | 0.084 | 55.01
CCCCCCCCC(CCCCCC)CC(=O)OCC(CCCCN(CCN(CC)CCO)C1CCC1)COC(=O)CC(CCCCCC)CCCCCCCC (centres unmarked) [Compound 69] | 91.81 | 6.789 | 0.013 | 110.30
CCCCCCCCC(CCCCCCCC)COC(=O)CCOCC(CN(C)CCN(CCO)C1CC1)OCCC(=O)OCC(CCCCCCCC)CCCCCCCC (centres unmarked) [Compound 70] | 93.32 | 6.351 | 0.049 | 78.45
CCCCCCCCC(CCCCCCCC)COC(=O)CCOCC(CN(C)CCN(CCO)C1CCCC1)OCCC(=O)OCC(CCCCCCCC)CCCCCCCC (centres unmarked) [Compound 71] | 94.62 | 6.727 | 0.077 | 76.45
CCCCCCCCC(CCCCCCCC)COC(=O)CCOCC(CN(C)CCN(CCO)C1CCCCCC1)OCCC(=O)OCC(CCCCCCCC)CCCCCCCC (centres unmarked) [Compound 73] | 94.69 | 6.616 | 0.088 | 76.26
CCCCCCCCC(CCCCCCCC)COC(=O)CCOCC(CN(C)CCN(CCO)C1CCCCCCC1)OCCC(=O)OCC(CCCCCCCC)CCCCCCCC (centres unmarked) [Compound 74] | 93.97 | 6.539 | 0.031 | 101.00
CCCCCCCCC(CCCCCC)CC(=O)OCC(CCCCN(CC=C(C)C)CCO)COC(=O)CC(CCCCCC)CCCCCCCC (centres unmarked) [Compound 77] | 89.92 | 6.439 | 0.046 | 56.88
